# What was measured:
# GAL4EcR + VP16RXR = assay: Transactivation of reporter gene through switch 1.1 in 3T3 cells; conditions: GAL4CfEcRDEF/VP16MmRXRDEF (switch 1.1), 1.0 μM ligand, 48 hr
# Text: (§1) In various cellular backgrounds, including mammalian cells, insect ecdysone receptor (EcR) heterodimerizes with retinoid X receptor (RXR) and, upon binding of ligand, transactivates genes under the control of ecdysone response elements. […] The prepared receptor constructs comprise a ligand binding domain of EcR and of RXR or of USP; a DNA binding domain of GAL4 or of EcR; and an activation domain of VP16. The reporter constructs include a reporter gene, luciferase or LacZ, operably linked to a synthetic promoter construct that comprises either GAL4 or EcR/USP binding sites (response elements). Various combinations of these receptor and reporter constructs were cotransfected into CHO, NIH3T3, CV1 and 293 cells.
# (§2) The same procedures described for CHO cells were followed for 3T3 cells as well with two modifications. The cells were plated when they reached 50% confluency. 125,000 or 50,000 or 25,000 cells were plated per well of 6- or 12- or 24-well plates respectively.
# GAL4RXR + VP16CfEcR = assay: Transactivation of reporter gene through switch 1.3 in 3T3 cells; conditions: GAL4MmRXRDEF/VP16CfEcRCDEF (switch 1.3), 1.0 μM ligand
# Text: as §1
# as §2, with “respectively. […] The ligand treatments were performed as described in the CHO cell section above.” for “respectively.”
# [1] = tested on: EcR/RXR receptor combinations; assay: Truncated CfEcR and MmRXR receptor combinations, luciferase reporter in NIH3T3 cells; format: cell-based, Choristoneura fumiferana; Mus musculus; conditions: 0, 1, 5 or 25 uM ligand for 48 hr, FIGS. 11–14
# Experimental: Briefly, polynucleotides encoding EcR or RXR receptors were truncated at the junctions of A/B, C, D, E and F domains and fused to either a GAL4 DNA binding domain encoding polynucleotide (SEQ ID NO: 43) for CfEcR, or a VP16 activation domain encoding polynucleotide (SEQ ID NO: 49) for MmRXR as described in Example 1. The resulting receptor truncation/fusion polypeptides were assayed in NIH3T3 cells. Plasmid pFRLUC (Stratagene) encoding a luciferase polypeptide was used as a reporter gene construct and pTKRL (Promega) encoding a Renilla luciferase polypeptide under the control of the constitutive TK promoter was used to normalize the transfections as described above. The analysis was performed in triplicates and mean luciferase counts were determined as described above. […]
# CfEcR = assay: Transactivation through CfEcR- versus DmEcR-based switches in mammalian cell lines (Tables 1–4); parameters: species or system Choristoneura fumiferana
# Experimental: Cells were harvested 24–48 hr after adding ligands. […] Twenty μl of lysate was assayed.
# CfEcRDEF:MmRXRDEF = assay: CfEcR-based yeast two-hybrid assay, LacZ reporter pSH118; format: cell-based, Choristoneura fumiferana; Mus musculus; conditions: yeast strain comprising CfEcRDEF:MmRXRDEF; 0–100 μM ligand for four hours; FIGS. 18 and 19
# Text: This construct results in a LexA:CfEcRDEF fusion that is expressed under the GAL1 promoter.
# The D, E, and F domains from mouse (Mus musculus) RXR α (“MmRXRDEF”; SEQ ID NO: 22) were fused to a B42 transactivation domain (“B42AD”; SEQ ID NO: 53) and placed under the control of a GAL1 promoter (SEQ ID NO: 73) in pB42AD (CLONTECH). This construct results in a B42AD:MmRXR-DEF fusion that is expressed under the GAL 1 promoter.
# A reporter plasmid comprising a β-galactosidase gene (LacZ; SEQ ID NO: 74) under the control of an 8XLexA operon response element (“8XlexAop”; SEQ ID NO: 75) operably linked to a minimal TATAA region from the GAL1 promoter (p8op-lacZ from CLONTECH) was used to monitor inducible gene expression.
# Saccharomyces cerevisiae yeast cells (EGY48; CLONTECH) were used in these experiments. Cells were maintained in liquid culture media with the appropriate drop out amino acids. Standard methods for culture and maintenance of the cells were followed. […]
# DNA constructs pSH118, CfEcRDEF, and MmRXRA/BCDEF, MmRXRDEF, or […] were transfected into yeast cells. […] A colony from each group of transformants was grown in the liquid culture in the presence of 0, 0.04, 0.2, 1, 5 and 25 μM GS™-E. The reporter activity was measured as described above 4 hours after adding ligand. Total RLUs were calculated and the numbers on the bars of FIG. 16 show maximum fold induction observed for that group (see FIGS. 16 and 17).
# The best performing transformed yeast strain from the analysis above comprising CfEcRDEF:MmRXRDEF was used to determine the induction activity of three steroid ligands (20E, PonA, MurA) and four non-steroid ligands (GS™-E, RH2485, RH5992, RH5849) in this yeast-based format. The yeast cells were cultured in the presence of 0, 0.l, 1, 10, 50 and 100 μM ligands for four hours and the reporter activity was measured as described above. Total RLUs were calculated and the numbers on the top of the bars of FIG. 18 show the maximum fold induction for that group (see FIGS. 18 and 19).
SMILES,Mean Fold Induction at 1.0 μM Concentration (GAL4EcR + VP16RXR),Mean Fold Induction at 1.0 μM Concentration (GAL4RXR + VP16CfEcR),Sensitivity of the EcR/RXR switch to the ligand [1],Potency as activator of CfEcR compared to DmEcR (CfEcR),Induction of gene expression (relative performance of ligands) (CfEcRDEF:MmRXRDEF)
"CC(C)CC[C@@H](O)[C@](C)(O)[C@H]1CC[C@@]2(O)C3=CC(=O)[C@@H]4C[C@@H](O)[C@@H](O)C[C@]4(C)[C@H]3CC[C@]12C [Ponasterone A, reference compound]",1.0 fold,1.0 fold,insensitive,–,–
"Cc1cc(C)cc(C(=O)N(NC(=O)c2ccc3c(c2C)OCCO3)C(C)(C)C)c1 [N-(3,4-(1,2-ethylenedioxy)-2-methylbenzoyl)-N′-(3,5-dimethylbenzoyl)-N′-tert-butylhydrazine]",–,54 fold,–,more potent activators of CfEcR as compared to Drosophila melanogaster EcR (DmEcR),–
"CC(C)(C)N(NC(=O)c1ccccc1)C(=O)c1ccccc1 [RH5849, N-tert-butyl-N,N′-dibenzoylhydrazine]",–,–,–,–,did not show a significant response
"CC(C)CC[C@@H](O)[C@](C)(O)[C@H]1CC[C@@]2(O)C3=CC(=O)[C@]4(O)C[C@@H](O)[C@@H](O)C[C@]4(C)[C@H]3[C@H](O)C[C@]12C [Muristerone A, reference compound]",1.0 fold,1.0 fold,–,–,–
